# Measured values published in patent US20090181010A1, “Arginase II: a target for the prevention of atherosclerosis” (The Johns Hopkins University, priority 2006, published 2009).
# pKi: −log10 of the molar value. Numbered stars: 1 amine (or outer) side, 2 acyl side, 3 side chain; on linkers, the order of the positions; unused ones are H or OH. Bridge positions count the residues as written; N and C are the ends. Square brackets hold non-standard residues; d marks the D form. Peptide text beside a SMILES is read from it. I, II: the chains in the order shown. Actinocin(9to1) = Cc1c2oc3c(C)ccc(C(=O)[*:1])c3nc-2c(C(=O)[*:2])c(N)c1=O; NMeV = CN[C@H](C(=O)O)C(C)C; Sar = CNCC(=O)O
# Tests used:
# NO production [1] = experiment: NO production in rat aortic rings; details: rat aortic rings E+, pre-incubation with BEC
# Procedure: FIGS. 7A-B depict arginase dependent endothelial dysfunction in OxLDL treated rat aorta. Arginase inhibition restores endothelial function and increases NO production in rat aortic rings. […] The increase in arginase activity was blocked by preincubation with BEC ([…], *p=0.0007, **p<0.0001 vs. untreated control; #p=0.0003 vs. OxLDL; n=5).
# (§1) NO was estimated as nitrate/nitrite (NOx) by Griess reaction after conversion of nitrate to nitrite by nitrate reductase, using the Nitric Oxide Assay Kit (Calbiochem). The concentration of NOx from cell lysates was expressed as nmol/mg proteins.
# human arginase II = biological target: T1, human arginase II (Homo sapiens, UniProt P78540); details: cited from earlier work
# T1 sequence (P78540 23-354): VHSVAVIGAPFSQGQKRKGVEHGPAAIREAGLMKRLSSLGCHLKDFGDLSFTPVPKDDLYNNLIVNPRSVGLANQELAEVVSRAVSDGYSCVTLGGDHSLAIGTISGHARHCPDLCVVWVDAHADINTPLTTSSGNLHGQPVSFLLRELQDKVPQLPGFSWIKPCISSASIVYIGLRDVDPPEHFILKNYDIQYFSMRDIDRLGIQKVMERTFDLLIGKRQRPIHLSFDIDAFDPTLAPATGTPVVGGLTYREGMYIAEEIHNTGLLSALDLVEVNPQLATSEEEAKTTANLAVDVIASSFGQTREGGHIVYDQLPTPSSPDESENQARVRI
# NO production [2] = experiment: Aortic NO production (griess method) in Apo E knockout mice; type: in vivo; details: Apo E KO mice, BEC treated
# arginase [3] = experiment: Arginase activity in rat aortic rings; details: rat aortic rings E+, preincubation with BEC
# Procedure: (§2) Cell lysates were prepared with lysis buffer (50 mM Tris-HCl, pH7.5, 0.1 mM EDTA and protease inhibitors) by brief vigorous vortexing for 30 min and incubation and centrifuging for 20 min at 14,000 g at 4° C. The supernatants are used for arginase activity as described previously^18. Arginase activity from aortic vessels was assayed as described above following homogenization in lysis buffer.
# NO production [4] = experiment: NO measurement (NOx, Griess reaction) in HAECs; type: cell-based, human
# Procedure: (§3) Human aortic endothelial cells (HAECs) were purchased from Cascade Biologics (Portland, Oreg.) and maintained in Medium M200 containing low serum growth supplement according to the supplier's protocol. Confluent HAECs were incubated with starvation medium (M200 plus only 0.5% fetal bovine serum) for 24 hr prior to the experimental protocols.
# as §1
# arginase [5] = experiment: Aortic arginase activity in Apo E knockout mice; type: in vivo; details: Apo E KO mice, BEC treated
# Procedure: (§4) FIGS. 8A-B Arginase inhibition decreases vascular stiffness and restores endothelial function in Apo E knockout mice. 16 WT mice were randomized to receive a normal or high cholesterol (HC) diet. […] Aortic Pulse wave velocity (PWV) (measured by 20 MHz pulsed Doppler from arch to abdominal aorta (4 cm) was used to measure vascular stiffness before and after pump implanatation.
# as §2
# Apo E knockout mice = experiment: Aortic pulse wave velocity (vascular stiffness) in Apo E knockout mice; type: in vivo; details: Apo E KO mice, HC diet
# Text: as §4
# arginase II [6] = experiment: Quantitative PCR of arginase II expression in HAECs; type: cell-based, human; details: HAEC
# Procedure: Total RNA from Ox-LDL-stimulated HAEC was prepared using Trizol Reagent according to the supplier's protocol (Gibco). To exclude contamination with genomic DNA, total RNA was treated with RNase-free DNase (Roche). PCR reaction was performed in iCycler optical system (Bio-rad) using SYBR green PCR master mix. The reverse transcriptional PCR primers are as follows: Arginase I: Forward 5′-GGC AAG GTG GCA GAA GTC A-3′, Reverse 5′-TGGTTGTCAGTGGAGTGTTG-3′, size of PCR products=163 bp; Arginase II: Forward 5′-CTATCAGCACTGGATCTTGTTG-3′, Reverse 5′-GGGAGTAGGAAGTTGGTCATAG-3′, size of PCR products=156 bp. 18S rRNA gene (Forward 5′-CGGCGACGACCCATTCGAAC-3′, Reverse 5′-GAATCGAACCCTGATTCCCCGTC-3′, size of PCR product=99 bp) was amplified as a control.
# arginase II [7] = experiment: Western blot of arginase II protein in HAECs; type: cell-based, human; details: HAEC, cycloheximide 10 μM co-incubation
# Procedure: Transient transfection of arginase-SiRNA (Santa Cruz Biotechnology) was performed with Oligofectamine reagent according to instructions provided by the supplier (Invitrogen). In brief, 8 μL of Oligofectamine was added to 17 μL Opti-MEM I reduced serum medium (Gibco), incubated for 5 minutes at room temperature, mixed with 180 μL Opti-MEM medium containing different amount of SiRNA, and further incubated for 15 minutes. The SiRNA-Oligofectamine complex was then overlaid on cells (each well of a 6 well culture dish). After incubation for 6 h, endothelial growth medium containing 3 times serum was added for making normal growth medium of 1× serum concentration. Transfected cells were then further incubated for 36 hr and starved for 24 hr prior to experiments and then stimulated with OxLDL for additional 6 hours.
# Cells were lysed in SDS sample buffer (62.5 mM Tris, pH6.8, 2% SDS, and 10% Glycerol) and then sonicated for 5 s to reduce sample viscosity. Each sample was resolved by 10% SDS-PAGE, transferred to PVDF membrane (Bio-rad), analysed with antibodies according to the supplier's protocol, and visualized with peroxidase and an enhanced-chemiluminescence system (Pierce). Normalization was performed using the anti-β-tubulin antibody (BD bioscience, 1:1,000). Densitometric analysis of bands was performed with NIH ImageJ program.
# arginase [8] = experiment: Arginase activity assay in HAEC lysates; type: cell-based, human
# Procedure: as §3, §2
# HAECs = experiment: Immunofluorescence of arginase II and beta-tubulin in HAECs; type: cell-based, human; details: HAEC, nocodazole 50 μM, 30 minutes
# Procedure: HAECs were cultured on coverslips coated with 25 µg/ml human plasma fibronectin (Invitrogen). Cells were then fixed and permeabilized with 3% paraformaldehyde and 0.5% Triton X-100 in PBS for 2 minutes, followed by 20 minutes of 3% paraformaldehyde alone. Samples were prepared for immunofluorescence analysis by incubating with a rabbit polyclonal antisera against arginase II (Santa Cruz Biotechnology, 1:50) and a mouse monoclonal antibody against β-tubulin (BD Biosciences, 1:50) for 30 minutes at 37° C. They were then rinsed in tris-buffered saline and incubated with Cy5-conjugated anti-rabbit IgG and Cy3-conjugated anti-mouse IgG (Chemicon, Temecula, Calif.). Images were acquired using a Nikon TE-200 epifluorescence microscope (with a 60× objective, and collected using Openlab software (Improvision, Lexington, Mass.) and an internally cooled 12-bit CCD camera (CoolsnapHQ, Photometrics, Tucson, Ariz.).
smiles,measurement,setting,value
"N[C@@H](CSCCB(O)O)C(=O)O [BEC, S-(2-boronoethyl)-L-cysteine]",vascular NO production following OxLDL treatment,NO production [1],increased vascular NO production
same,pKi,human arginase II,6.68
same,aortic NO production,NO production [2],restoration of NO production to WT
same,OxLDL-induced increase in arginase activity,arginase [3],blocked
same,effect on HAEC NOx production,"NO production [4]; BEC alone, no OxLDL",no effect
same,prevention of OxLDL-dependent decrease in NO,"NO production [4]; HAEC, BEC 10 μmol/L, all time points from 4 hrs",prevents
same,"NOx production, OxLDL+BEC vs. control","NO production [4]; HAEC, OxLDL 50 μg/ml + BEC 10 μmol/L, 4 hrs",102%
same,NOx production,"NO production [4]; HAEC, OxLDL + BEC 10 μmol/L, 4 hrs, control 14.24±0.95",14.58±0.94 nmol/mg proteins
same,aortic arginase activity,arginase [5],significant decrease
same,Aortic pulse wave velocity (PWV),"Apo E knockout mice; BEC group, before pump implantation",4.9±0.22 m/sec
same,Aortic pulse wave velocity (PWV),Apo E knockout mice; after 4 weeks BEC (1 mg/mice) by osmotic infusion pump,4.0±0.25 m/sec
"Cc1c2oc3c(C)ccc(C(=O)N[C@@H]4C(=O)N[C@H](C(C)C)C(=O)N5CCC[C@H]5C(=O)N(C)CC(=O)N(C)[C@@H](C(C)C)C(=O)O[C@@H]4C)c3nc-2c(C(=O)N[C@@H]2C(=O)N[C@H](C(C)C)C(=O)N3CCC[C@H]3C(=O)N(C)CC(=O)N(C)[C@@H](C(C)C)C(=O)O[C@@H]2C)c(N)c1=O [actinomysin D] (I: T[dV]P[Sar][NMeV] / II: T[dV]P[Sar][NMeV]; ester I:1-I:C, II:1-II:C; linker I:N-II:N via Actinocin(9to1))","arginase II expression (quantitative PCR), relative to control 1.0±0.06",arginase II [6]; OxLDL 4 hrs + actinomysin D 10 μg/ml,1.1±0.15
same,block of OxLDL-induced arginase II expression,arginase II [6]; actinomysin D 10 μg/ml,completely blocked
C[C@@H]1C[C@@H]([C@H](O)CC2CC(=O)NC(=O)C2)C(=O)[C@@H](C)C1 [cycloheximide],block of OxLDL-induced arginase II protein increase,arginase II [7],completely blocked
C/C(=C\c1csc(C)n1)[C@@H]1C[C@@H]2O[C@]2(C)CCC[C@H](C)[C@H](O)[C@@H](C)C(=O)C(C)(C)[C@@H](O)CC(=O)O1 [epothilone B],endothelial NO production,"NO production [4]; HAEC, OxLDL + epothilone B 0.1 μmol/L",8.05±0.47 nmol/mg proteins
same,basal endothelial cell NOx,"NO production [4]; HAEC, epothilone B alone",small but not statistically significant increase
same,arginase activity,arginase [8]; OxLDL + epothilone B 0.1 μmol/L,73.55±2.82 μmol Urea/mg protein/min
COC(=O)Nc1nc2ccc(C(=O)c3cccs3)cc2[nH]1 [nocodazole],NOS measurement,"NO production [4]; HAEC, nocodazole treatment",reciprocal decrease
same,arginase activity,"arginase [8]; nocodazole 5 μmol/L, control 40.4±7.63",100.7±11.17 μmol Urea/mg protein/min
same,arginase activity,"arginase [8]; nocodazole 50 μmol/L, control 40.4±7.63",134.3±0.28 μmol Urea/mg protein/min
same,arginase activity,arginase [8]; nocodazole in combination with Ox-LDL,141.9±7.07 μmol Urea/mg protein/min
same,arginase II localization (immunofluorescence),HAECs,diffuse arginase localization
